# PMC5986797, “Laminin heparin-binding peptides bind to several growth factors and enhance diabetic wound healing” (Nature Communications, 2018)
# “Also recorded” adds a separate entry of the source.
# Experiments:
# GF [1] = test: ELISA: GF binding to laminin peptides, stated for the tested GFs together; set-up: species or system human; conditions: 10 µg/mL laminin peptide coated, 1 μg/mL GF, n = 4
# [2] = system: recombinant human syndecan-1, syndecan-2, syndecan-3, and syndecan-4; test: ELISA: syndecan binding to laminin peptides; set-up: key to Interaction with Syndecan: ++ indicates high affinities; + indicates medium/low affinities; conditions: for binding to syndecans 1–4 (ELISA): 10 µg/mL laminin peptide coated (legend; method 1 μg/mL), 1 μg/mL histidine-tagged syndecan, vs BSA-coated wells, n = 8; for Interaction with Syndecan: summary table
# Method: ELISA tests were performed as described above. […] A concentration of 1 μg/mL of BSA served as non-binding protein control. After blocking with 2% BSA PBS-T solution, 1 μg/mL of the recombinant human syndecan-1, syndecan-2, syndecan-3, and syndecan-4 (all syndecan proteins are histidine-tagged; SinoBiological) were added. Bound GF was detected with anti-histidine tag antibody (BioLegend, Catalog No. 562504, 1:1000 dilution).
# [3] = ELISA: biotinylated heparin binding to laminin peptides; set-up: key to Interaction with Heparin: ++ indicates high affinities; + indicates medium/low affinities; conditions: for binding to heparin (ELISA): 10 µg/mL laminin peptide coated (legend; method 1 μg/mL), 10 µg/mL biotinylated heparin, vs BSA-coated wells, n = 4; for Interaction with Heparin: summary table
# Method: (§1) ELISA tests were performed as described above. In brief, […] recombinant protein, laminin alpha 4 LG domain recombinant protein (R&D Systems), laminin alpha 5 LG domain recombinant protein (LD BioPharma), or laminin peptide (sequences are described in Supplementary Table 1, chemically synthesized by Genscript) in PBS for 2 h at 37 °C. A concentration of 1 μg/mL of BSA served as non-binding protein control. After blocking with 2% BSA PBS-0.05% Tween 20 (PBS-T) solution, 1 μg/mL of the recombinant human proteins (VEGF-A121, VEGF-A165, PlGF-1, PlGF-2, PDGF-BB, or FGF-2) or 10 μg/mL of biotinylated heparin (Sigma-Aldrich) were added. Bound GF was detected with biotinylated antibodies for human VEGF-A, PlGF, PDGF-BB (R&D Systems, Catalog No. DY220, 1:180 dilution), or FGF-2 (R&D Systems). The antibodies were detected by streptavidin-HRP (R&D Systems).
# PlGF-2 [4] = test: ELISA: PlGF-2 binding to laminin LG domain / laminin peptide; set-up: species or system human; conditions: 10 µg/mL laminin peptide coated (legend; method 1 μg/mL); 1 μg/mL GF; vs BSA-coated wells; n = 4
# Method: (§2) ELISA tests were performed as described above. In brief, ELISA plates were coated with 1 μg/mL of laminin alpha 3 LG domain recombinant protein, laminin alpha 4 LG domain recombinant protein (R&D Systems), laminin alpha 5 LG domain recombinant protein (LD BioPharma), or laminin peptide (sequences are described in Supplementary Table 1, chemically synthesized by Genscript) in PBS for 2 h at 37 °C. A concentration of 1 μg/mL of BSA served as non-binding protein control. After blocking with 2% BSA PBS-0.05% Tween 20 (PBS-T) solution, 1 μg/mL of the recombinant human proteins (VEGF-A121, VEGF-A165, PlGF-1, PlGF-2, PDGF-BB, or FGF-2) or 10 μg/mL of biotinylated heparin (Sigma-Aldrich) were added. Bound GF was detected with biotinylated antibodies for human VEGF-A, PlGF, PDGF-BB (R&D Systems, Catalog No. DY220, 1:180 dilution), or FGF-2 (R&D Systems). The antibodies were detected by streptavidin-HRP (R&D Systems).
# PDGF-BB [5] = test: ELISA: PDGF-BB binding to laminin LG domain / laminin peptide; set-up: species or system human; conditions: 10 µg/mL laminin peptide coated (legend; method 1 μg/mL); 1 μg/mL GF; vs BSA-coated wells; n = 4
# Method: as §2
# FGF-2 = test: ELISA: FGF-2 binding to laminin LG domain / laminin peptide; set-up: species or system human; conditions: 10 µg/mL laminin peptide coated (legend; method 1 μg/mL); 1 μg/mL GF; vs BSA-coated wells; n = 4
# Method: as §2
# GF [6] = test: ELISA: GF binding to laminin peptides, stated for the tested GFs together; set-up: species or system human; key: ++ indicates high affinities; + indicates medium/low affinities; conditions: summary table
# Method: as §2
# VEGF-A165 = test: ELISA: VEGF-A165 binding to laminin LG domain / laminin peptide; set-up: species or system human; conditions: 10 µg/mL laminin peptide coated (legend; method 1 μg/mL); 1 μg/mL GF; vs BSA-coated wells; n = 4
# Method: as §1
# HUVEC cells = test: Migration assay (transwell); format: cell-based, human; conditions: 0.1 μM peptide, in the presence and absence of 30 ng/mL VEGF-A165; 6 h; n = 4
# Method: A QCM 24-Well Colorimetric Cell Migration Assay Kit was used to perform migration assay. Both sides of inserts were coated with 0.1 μM of bovine collagen I (C4243, Sigma-Aldrich) for 1 h at 37 °C. Then, the inserts were washed with water, dried in a laminar flow cabinet, and disposed on 24-well cell culture plate covers. Solutions containing 30 ng/mL of VEGF-A165 preincubated with or without 0.1 μM of LAMA3_3043–3067 peptide in a medium (MCDB-131, 0.05% BSA) were added to the bottom side of the transwell (500 μL/well). Directly thereafter, HUVEC cells (Lonza) in a medium containing 0.05% BSA (300 μL/transwell, 4 × 10^4 cells/transwell) were added to the transwell upper parts. After 6 h, migrated cells were stained and absorbance at 560 nm was measured according to the manufacturer’s instructions.
# [7] = system: human umbilical vein endothelial cells (HUVEC); test: Cell adhesion assay, HUVEC; format: cell-based; set-up: key to Cell adhesion HUVEC: ++ indicates high affinities; + indicates medium/low affinities
# Method: A total of 96-well plates (non-tissue culture treated, Greiner Bio-One) were pre-coated with 1 μg/mL with laminin HBD peptides in PBS for 2 h at 37 °C, followed by blocking with 2% BSA PBS for 1 h at RT. […] Cells were plated at 3000 cells/well on laminin peptide pre-coated plates and incubated for 30 min at 37 °C, 5% CO2. Then, the medium was removed, and wells were quickly washed three times with PBS. Cell numbers were quantified using a CyQUANT assay, according to the manufacturer’s instructions (Invitrogen). All cell lines were checked for mycoplasma contamination and used in passages from 5 to 8.
# human lung fibroblasts = test: Cell adhesion assay, fibroblasts; format: cell-based; set-up: key to Cell adhesion Fibroblast: ++ indicates high affinities; + indicates medium/low affinities; conditions: for Cell adhesion Fibroblast: summary table; for fibroblast attachment on peptide-coated surfaces: without EDTA, 1 μg/mL peptide coated, 3000 cells/well, 30 min, 37 °C, FGM-2, 1% FBS, CyQUANT, vs BSA, n = 10
# Method: A total of 96-well plates (non-tissue culture treated, Greiner Bio-One) were pre-coated with 1 μg/mL with laminin HBD peptides in PBS for 2 h at 37 °C, followed by blocking with 2% BSA PBS for 1 h at RT. Cell adhesion assays were performed using human lung fibroblasts (Lonza) in FGM-2 medium (Lonza) or human umbilical vein endothelial cells (HUVEC; Lonza) in EGM-2 medium (Lonza) supplemented with 1% fetal bovine serum (FBS) and […] VEGF-A165, with or without 5 mM EDTA (Sigma-Aldrich). Cells were plated at 3000 cells/well on laminin peptide pre-coated plates and incubated for 30 min at 37 °C, 5% CO2. Then, the medium was removed, and wells were quickly washed three times with PBS. Cell numbers were quantified using a CyQUANT assay, according to the manufacturer’s instructions (Invitrogen). All cell lines were checked for mycoplasma contamination and used in passages from 5 to 8.
# [8] = system: GF (VEGF-A165, PlGF-2, FGF-2) binding to laminin; test: Inhibition of laminin–GF binding by heparin (ELISA); set-up: species or system human; conditions: 10 µM heparin; 10 µg/mL laminin coated; 1 μg/mL VEGF-A165, PlGF-2 or FGF-2; n = 4
# Method: ELISA plates (med-binding) were coated with 10 μg/mL laminin isoforms (–111, –211, –221, –411, –421, –511, and –521) in PBS for 2 h at 37 °C. Then, wells were blocked with 2% BSA-containing PBS-T and further incubated with 1 μg/mL each of VEGF-A165, PlGF-2, or FGF-2 for 60 min at RT with 10 μM heparin. Next, the wells were incubated with biotinylated anti-VEGF (R&D Systems, Catalog No. DY293B, 1:60 dilution), anti-PlGF (R&D Systems, Catalog No. DY264, 1:180 dilution), or anti-FGF-2 (R&D Systems, Catalog No. DY233, 1:60 dilution) antibodies. The antibodies were detected by streptavidin-HRP (R&D Systems).
# PlGF-2 [9] = test: SPR: laminin-521 against PlGF-2; format: binding, human; conditions: laminin-521 immobilized (~2000 RU) on C1 chip, GF flown over, Langmuir fit
# Method: (§3) SPR measurements were made with a Biacore 3000 SPR system (GE Healthcare). Laminin-521 or laminin LAMA3_2928–3150 was immobilized via amine coupling on a C1 chip (GE Healthcare) for ~2000 or ~1000 resonance units (RU), respectively, according to the manufacturer’s instructions. VEGF-A165, PDGF-BB, or PlGF-2 was flown at increasing concentrations in the running buffer (0.01 M HEPES, pH 7.4, 0.15 M NaCl, and 0.005% v/v surfactant P20) at 20 μL/min. The sensor chip was regenerated with 50 mM NaOH for every cycle. Specific bindings of GFs to laminin were calculated by comparison to a non-functionalized channel used as a reference. Experimental results were fitted with Langmuir binding kinetics using BIAevaluation software (GE Healthcare).
# PDGF-BB [10] = test: SPR: laminin-521 against PDGF-BB; format: binding, human; conditions: laminin-521 immobilized (~2000 RU) on C1 chip, GF flown over, Langmuir fit
# Method: as §3
Substance,binding to syndecans 1–4 (ELISA) [2],Interaction with Syndecan [2],binding to heparin (ELISA) [3],"binding to PlGF-2 (ELISA), peptides (PlGF-2 [4])","binding to PDGF-BB (ELISA), peptides (PDGF-BB [5])",Interaction with Heparin [3],"binding to FGF-2 (ELISA), peptides (FGF-2)",Interaction with GF (GF [6]),"binding to VEGF-A165 (ELISA), peptides (VEGF-A165)",further results
"ARKASRRSRQPARH [LAMA5_3312–3325, chemically synthesized human laminin LAMA5 linker peptide, 14 aa, subdomain of LAMA5_3300–3330]",weak binding,+,did not bind to heparin,,,,,,,binding to the tested GFs (ELISA) (GF [1]): did not show particular binding to any tested GF
"PLFLLHKKGKNLSKPKASQNKKGGKSK [LAMA4_1408–1434, chemically synthesized human laminin LAMA4 linker peptide, 27 aa]",significant binding,++,bound to heparin,bound,bound,++,bound,++,bound,
"RLVFALGTDGKKLRIKSKEKCNDGK [LAMA3_3043–3067, chemically synthesized human laminin LAMA3 LG4 HBD peptide, 25 aa]",significant binding,++,bound to heparin,bound,bound,++,bound,++,bound,"degree of migration of HUVEC cells, peptide (HUVEC cells): did not increase the degree of cell migration; HUVEC attachment in the presence of EDTA ([7]; 5 mM EDTA, 1 μg/mL peptide coated, 3000 cells/well, 30 min, 37 °C, CyQUANT, n = 10): even in the presence of EDTA; Cell adhesion HUVEC ([7]; summary table): ++; HUVEC attachment on peptide-coated surfaces ([7]; without EDTA, 1 μg/mL peptide coated, 3000 cells/well, 30 min, 37 °C, 100 ng/mL VEGF-A165, 1% FBS, CyQUANT, n = 10): promoted HUVEC attachment; Cell adhesion Fibroblast (human lung fibroblasts): ++; fibroblast attachment on peptide-coated surfaces (human lung fibroblasts): enhancement of fibroblast attachment"
"RQRSRPGRWHKVSVRWEKNR [LAMA5_3417–3436, chemically synthesized human laminin LAMA5 LG4 peptide, 20 aa]",significant binding,++,bound to heparin,bound,bound,++,bound,++,bound,Cell adhesion Fibroblast (human lung fibroblasts): +; fibroblast attachment on peptide-coated surfaces (human lung fibroblasts): enhancement of fibroblast attachment
"TLPDVGLELEVR [LAMA5_3539–3550, chemically synthesized human laminin LAMA5 LG5 peptide, 12 aa]",did not show binding,,did not show binding to heparin; also recorded: do not show heparin binding,,,,,+,,binding to the tested GFs (ELISA) (GF [1]): significantly bound to all tested GFs
heparin,,,,,,,,,,inhibition of GF binding to laminin by excess heparin [8]: inhibited
laminin-521: recombinant human full-length laminin isoform (BioLamina),,,,,,,,,,Kd (PlGF-2 [9]): 12.9 nM; Kd (PDGF-BB [10]): 24.2 nM
